Earlier results as cited in patent publication US10792281B2 (priority 2014, dated 2020).
Like-named read-outs stand apart in the source and are kept apart here.

Columns and labels:
[1] = tested on: nuclear factor kappa-B (NF-kB) and activator protein-1 (AP-1) activity
[2] = not given; remark: listed apart in the source
[3] = human, in vivo
[4] = tested on: human rhinovirus (HRV)
[5] = in vivo

Clc1ccc2c(c1)CCc1cccnc1C2=C1CCNCC1 [Desloratadine, desloratadine]
half-life (in vivo): 27 h | half-life (slow metabolizers): > 50 h

CN(C)CCOC(c1ccccc1)c1ccccc1 [Diphenhydramine, diphenhydramine]
effect on AP-1 and NF-kB activity / RANTES production [1]: ineffective

O=C(O)COCCN1CCN([C@H](c2ccccc2)c2ccc(Cl)cc2)CC1 [levocetirizine]
peak concentration ([2]; repeated 5 mg once daily oral dose): 308 ng/mL | peak concentration ([2]; single 5 mg oral dose): 270 ng/mL | doses that can be safely administered [3]: up to 30 mg/day | HRV-induced ICAM-1, cytokine expression, and viral replication ([4]; airway epithelial cells from both the nose and lung): inhibit | decrease of viral titers ([4]; in vitro, e.g. rhinovirus): 2 log

CN(c1nccc(=O)[nH]1)C1CCN(c2nc3ccccc3n2Cc2ccc(F)cc2)CC1 [mizolastine]
bioavailability (in vivo): high

CC(C)(O)c1ccccc1CC[C@@H](SCC1(CC(=O)O)CC1)c1cccc(/C=C/c2ccc3ccc(Cl)cc3n2)c1 [montelukast]
time to peak plasma concentration [5]: 3 to 4 h | effect of food on oral bioavailability and Cmax ([5]; po): not affected by a standard meal | AUC range ([5]; po, 10 mg): 1521 to 4595 ng/h/mL | mean AUC ([5]; po, 10 mg): 2689 ng/h/mL | doses without clinically relevant side effects [3]: up to 200 mg/day | drug interactions ([3]; po): no drug interactions
